According to publication PMC5218480 (PLoS ONE, 2017):

Tested on: MV-4-11 cells
Assay: Gene expression microarray analysis (Affymetrix PrimeView) and GSEA
Format: cell-based, human
Parameters: RFU PODN (11730768_x_at) / Fold change /veh PODN (11730768_x_at) / RFU LINC00158 (11744669_a_at) / Fold change /veh LINC00158 (11744669_a_at) / RFU DUSP10 (11751237_a_at) / Fold change /veh DUSP10 (11751237_a_at) / RFU ID3 (11757404_x_at) / Fold change /veh ID3 (11757404_x_at) / RFU PLEKHG5 (11737974_s_at) / Fold change /veh PLEKHG5 (11737974_s_at) / RFU LRRC4B (11730491_at) / Fold change /veh LRRC4B (11730491_at) / RFU GIMAP4 (11747438_a_at) / Fold change /veh GIMAP4 (11747438_a_at) / RFU KRT8 (11758183_x_at) / Fold change /veh KRT8 (11758183_x_at) / RFU CNN1 (11734310_a_at) / Fold change /veh CNN1 (11734310_a_at) / RFU VPS37D (11726825_at) / Fold change /veh VPS37D (11726825_at) / RFU C10orf10 (11716522_x_at) / Fold change /veh C10orf10 (11716522_x_at) / RFU KIR2DL2 /// KIR2DL4 /// KIR2DL5A /// KIR2DL5B /// KIR2DS1 /// KIR2DS2 /// KIR2DS3 /// KIR2DS4 /// KIR3DL3 /// KIR3DL3 /// KIR3DS1 (11738374_at) / Fold change /veh KIR2DL2 /// KIR2DL4 /// KIR2DL5A /// KIR2DL5B /// KIR2DS1 /// KIR2DS2 /// KIR2DS3 /// KIR2DS4 /// KIR3DL3 /// KIR3DL3 /// KIR3DS1 (11738374_at) / RFU C1QL1 (11718748_at) / Fold change /veh C1QL1 (11718748_at) / RFU TMPRSS4 (11747572_a_at) / Fold change /veh TMPRSS4 (11747572_a_at) / RFU HAMP (11756126_x_at) / Fold change /veh HAMP (11756126_x_at) / RFU RNFT2 (11725882_a_at) / Fold change /veh RNFT2 (11725882_a_at) / RFU NR4A2 (11747474_a_at) / Fold change /veh NR4A2 (11747474_a_at) / RFU ABCC12 (11746883_a_at) / Fold change /veh ABCC12 (11746883_a_at) / RFU TMEM136 (11760407_x_at) / Fold change /veh TMEM136 (11760407_x_at) / RFU CLDN22 /// WWC2 (11732394_at) / Fold change /veh CLDN22 /// WWC2 (11732394_at) / RFU HLA-DPB1 (11760878_x_at) / Fold change /veh HLA-DPB1 (11760878_x_at) / RFU SPINT1 (11716480_a_at) / Fold change /veh SPINT1 (11716480_a_at) / RFU GAP43 (11754022_s_at) / Fold change /veh GAP43 (11754022_s_at) / RFU A4GNT (11735810_at) / Fold change /veh A4GNT (11735810_at) / RFU PRB3 (11715151_x_at) / Fold change /veh PRB3 (11715151_x_at) / RFU TUBB4B (11761932_at) / Fold change /veh TUBB4B (11761932_at) / RFU CAPN14 (11732068_a_at) / Fold change /veh CAPN14 (11732068_a_at) / RFU TMCC2 (11721928_a_at) / Fold change /veh TMCC2 (11721928_a_at) / RFU IRGQ (11745062_a_at) / Fold change /veh IRGQ (11745062_a_at) / RFU FAM174B (11720279_a_at) / Fold change /veh FAM174B (11720279_a_at) / RFU TMPRSS4 (11748680_a_at) / Fold change /veh TMPRSS4 (11748680_a_at) / RFU FAM212B (11763350_a_at) / Fold change /veh FAM212B (11763350_a_at) / RFU PLEKHG5 (11743358_a_at) / Fold change /veh PLEKHG5 (11743358_a_at) / RFU ZSCAN30 (11745921_a_at) / Fold change /veh ZSCAN30 (11745921_a_at) / RFU CMKLR1 (11741424_a_at) / Fold change /veh CMKLR1 (11741424_a_at) / RFU LOC101060620 /// MAPK8IP1 (11723275_at) / Fold change /veh LOC101060620 /// MAPK8IP1 (11723275_at) / RFU SPTSSB (11747773_x_at) / Fold change /veh SPTSSB (11747773_x_at) / RFU PRSS12 (11739890_at) / Fold change /veh PRSS12 (11739890_at) / RFU BIN1 (11741810_x_at) / Fold change /veh BIN1 (11741810_x_at) / RFU WNT11 (11732464_a_at) / Fold change /veh WNT11 (11732464_a_at) / RFU C10orf10 (11716521_a_at) / Fold change /veh C10orf10 (11716521_a_at) / RFU C5orf56 (11738089_at) / Fold change /veh C5orf56 (11738089_at) / RFU CYB561 (11721691_x_at) / Fold change /veh CYB561 (11721691_x_at) / RFU ANKRD19P (11752326_a_at) / Fold change /veh ANKRD19P (11752326_a_at) / RFU OR2T12 /// OR2T33 /// OR2T8 (11738714_s_at) / Fold change /veh OR2T12 /// OR2T33 /// OR2T8 (11738714_s_at) / RFU VCAN (11748164_a_at) / Fold change /veh VCAN (11748164_a_at) / RFU JSRP1 (11732532_at) / Fold change /veh JSRP1 (11732532_at) / RFU KRTAP10-11 (11738290_x_at) / Fold change /veh KRTAP10-11 (11738290_x_at) / RFU MYO3A (11730013_a_at) / Fold change /veh MYO3A (11730013_a_at) / RFU EBF3 (11725865_a_at) / Fold change /veh EBF3 (11725865_a_at) / RFU CAMK2N1 (11719241_x_at) / Fold change /veh CAMK2N1 (11719241_x_at) / RFU C5orf56 (11738088_a_at) / Fold change /veh C5orf56 (11738088_a_at) / RFU OLFML3 (11715873_a_at) / Fold change /veh OLFML3 (11715873_a_at) / RFU LOC100653217 /// NTM (11731650_a_at) / Fold change /veh LOC100653217 /// NTM (11731650_a_at) / RFU MAPK11 (11762145_a_at) / Fold change /veh MAPK11 (11762145_a_at) / RFU FIZ1 (11724087_x_at) / Fold change /veh FIZ1 (11724087_x_at) / RFU OASL (11726364_x_at) / Fold change /veh OASL (11726364_x_at) / RFU SOX15 (11748057_x_at) / Fold change /veh SOX15 (11748057_x_at) / RFU CD79A (11719716_a_at) / Fold change /veh CD79A (11719716_a_at) / RFU HIST1H1D (11736915_at) / Fold change /veh HIST1H1D (11736915_at) / RFU CASKIN2 (11723855_a_at) / Fold change /veh CASKIN2 (11723855_a_at) / RFU LOC730098 (11760151_x_at) / Fold change /veh LOC730098 (11760151_x_at) / RFU OR4N2 (11742367_at) / Fold change /veh OR4N2 (11742367_at) / RFU PRRT2 (11749266_a_at) / Fold change /veh PRRT2 (11749266_a_at) / RFU SNX32 (11753110_a_at) / Fold change /veh SNX32 (11753110_a_at) / RFU CDHR5 (11726645_a_at) / Fold change /veh CDHR5 (11726645_a_at) / RFU RCAN1 (11760418_a_at) / Fold change /veh RCAN1 (11760418_a_at) / RFU FAM167A (11723789_a_at) / Fold change /veh FAM167A (11723789_a_at) / RFU FAM26E (11764081_at) / Fold change /veh FAM26E (11764081_at) / RFU ISYNA1 (11749810_s_at) / Fold change /veh ISYNA1 (11749810_s_at) / RFU ACY1 (11761880_at) / Fold change /veh ACY1 (11761880_at) / RFU 11764098_at / Fold change /veh 11764098_at / RFU SAMD14 (11745864_x_at) / Fold change /veh SAMD14 (11745864_x_at) / RFU NPB (11741838_a_at) / Fold change /veh NPB (11741838_a_at) / RFU TMPRSS6 (11731388_a_at) / Fold change /veh TMPRSS6 (11731388_a_at) / RFU KRTAP10-2 (11738614_at) / Fold change /veh KRTAP10-2 (11738614_at) / RFU ARHGAP8 /// PRR5-ARHGAP8 (11727945_x_at) / Fold change /veh ARHGAP8 /// PRR5-ARHGAP8 (11727945_x_at) / RFU KRTAP5-7 /// NADSYN1 (11734609_at) / Fold change /veh KRTAP5-7 /// NADSYN1 (11734609_at) / RFU RASL12 (11751679_a_at) / Fold change /veh RASL12 (11751679_a_at) / RFU CDKN2B (11736163_a_at) / Fold change /veh CDKN2B (11736163_a_at) / RFU PRF1 (11729649_at) / Fold change /veh PRF1 (11729649_at) / RFU, ZNF638 /// ZNF638-IT1 / Fold change vs veh, ZNF638 /// ZNF638-IT1 / RFU, PANK3 / Fold change vs veh, PANK3 / RFU, SH3YL1 / Fold change vs veh, SH3YL1 / RFU, ZEB2 / Fold change vs veh, ZEB2 / RFU, NRIP1 / Fold change vs veh, NRIP1 / RFU, PTTG1IP / Fold change vs veh, PTTG1IP / RFU, CAPN2 / Fold change vs veh, CAPN2 / RFU, MED14 / Fold change vs veh, MED14 / RFU, SNORA58 / Fold change vs veh, SNORA58 / RFU, C1orf63 / Fold change vs veh, C1orf63 / RFU, LRRFIP1 / Fold change vs veh, LRRFIP1 / RFU, NDUFAF7 / Fold change vs veh, NDUFAF7 / RFU, SLC12A2 / Fold change vs veh, SLC12A2 / RFU, IBTK / Fold change vs veh, IBTK / RFU, ESF1 / Fold change vs veh, ESF1 / Fold change vs veh, TMEM50B / RFU, TAOK1 / Fold change vs veh, TAOK1 / RFU, ACBD3 / Fold change vs veh, ACBD3 / RFU, TMA16 / Fold change vs veh, TMA16 / RFU, RWDD3 / Fold change vs veh, RWDD3 / RFU, BCAT1 / Fold change vs veh, BCAT1 / RFU, EDEM3 / Fold change vs veh, EDEM3 / RFU, TMEM33 / Fold change vs veh, TMEM33 / RFU, WDR75 / Fold change vs veh, WDR75 / RFU, AHCTF1 / Fold change vs veh, AHCTF1 / RFU, TFRC / Fold change vs veh, TFRC / RFU, ZDHHC17 / Fold change vs veh, ZDHHC17 / RFU, NOM1 / Fold change vs veh, NOM1 / RFU, ARL8B / Fold change vs veh, ARL8B / RFU, ZBTB11 / Fold change vs veh, ZBTB11 / RFU, TAMM41 / Fold change vs veh, TAMM41 / RFU, KIAA1704 /// LOC100996395 / Fold change vs veh, KIAA1704 /// LOC100996395 / RFU, ING1 / Fold change vs veh, ING1 / RFU, TRMT61B / Fold change vs veh, TRMT61B / RFU, FUBP3 / Fold change vs veh, FUBP3 / RFU, TP53 / Fold change vs veh, TP53 / RFU, TNKS2 / Fold change vs veh, TNKS2 / RFU, ZFP14 / Fold change vs veh, ZFP14 / RFU, ACTR2 / Fold change vs veh, ACTR2 / RFU, PPP3R1 / Fold change vs veh, PPP3R1 / RFU, PIK3R1 / Fold change vs veh, PIK3R1 / RFU, HNRNPA1 / Fold change vs veh, HNRNPA1 / RFU, RNF170 / Fold change vs veh, RNF170 / RFU, ZNF28 / Fold change vs veh, ZNF28 / RFU, RNGTT / Fold change vs veh, RNGTT / RFU, OGT / Fold change vs veh, OGT / RFU, BRD1 / Fold change vs veh, BRD1 / RFU, MARS / Fold change vs veh, MARS / RFU, ZNF655 / Fold change vs veh, ZNF655 / RFU, FAHD1 / Fold change vs veh, FAHD1 / RFU, BDP1 / Fold change vs veh, BDP1 / RFU, LRRCC1 / Fold change vs veh, LRRCC1 / RFU, ARID1A / Fold change vs veh, ARID1A / RFU, ZNF146 / Fold change vs veh, ZNF146 / RFU, ZNF330 / Fold change vs veh, ZNF330 / RFU, GPN3 / Fold change vs veh, GPN3 / RFU, C9orf123 / Fold change vs veh, C9orf123 / RFU, N4BP2L2 / Fold change vs veh, N4BP2L2 / RFU, ARFIP1 / Fold change vs veh, ARFIP1 / RFU, FAM179B / Fold change vs veh, FAM179B / RFU, BCL10 / Fold change vs veh, BCL10 / RFU, UHRF1BP1L / Fold change vs veh, UHRF1BP1L / RFU, BET1 / Fold change vs veh, BET1 / RFU, CNOT2 / Fold change vs veh, CNOT2 / RFU, ZNF268 / Fold change vs veh, ZNF268 / Fold change vs veh, ZNF507 / RFU, DGCR2 / Fold change vs veh, DGCR2 / RFU, WDSUB1 / Fold change vs veh, WDSUB1 / Fold change vs veh, HSP90B1 /// MIR3652 / RFU, ADSS / Fold change vs veh, ADSS / RFU, GK / Fold change vs veh, GK / RFU, ZNF148 / Fold change vs veh, ZNF148 / RFU, TAF9 / Fold change vs veh, TAF9 / RFU, SLC1A5 / Fold change vs veh, SLC1A5 / RFU, SLMO2 / Fold change vs veh, SLMO2 / RFU, ABCC4 / Fold change vs veh, ABCC4 / RFU, LOC101060439 /// RAP1B / Fold change vs veh, LOC101060439 /// RAP1B / RFU, RFX7 / Fold change vs veh, RFX7 / RFU, GTPBP10 / Fold change vs veh, GTPBP10 / RFU, CNEP1R1 / Fold change vs veh, CNEP1R1 / RFU, BIVM-ERCC5 /// ERCC5 / Fold change vs veh, BIVM-ERCC5 /// ERCC5 / RFU, ILF3 / Fold change vs veh, ILF3 / RFU 11762660_at / Fold change /veh 11762660_at / RFU VCAN (11757783_s_at) / Fold change /veh VCAN (11757783_s_at) / RFU DDX43 (11728927_at) / Fold change /veh DDX43 (11728927_at) / RFU KRT8 (11758188_x_at) / Fold change /veh KRT8 (11758188_x_at) / RFU NKD1 (11759106_at) / Fold change /veh NKD1 (11759106_at) / RFU SRD5A1 (11742802_a_at) / Fold change /veh SRD5A1 (11742802_a_at) / RFU TPSAB1 /// TPSB2 (11721975_s_at) / Fold change /veh TPSAB1 /// TPSB2 (11721975_s_at) / RFU GSTM3 (11746129_a_at) / Fold change /veh GSTM3 (11746129_a_at) / RFU IL23R (11737362_x_at) / Fold change /veh IL23R (11737362_x_at) / RFU TMEM51 (11727254_a_at) / Fold change /veh TMEM51 (11727254_a_at) / RFU PIWIL2 (11732686_x_at) / Fold change /veh PIWIL2 (11732686_x_at) / RFU ORM1 (11744905_x_at) / Fold change /veh ORM1 (11744905_x_at) / RFU CCDC152 (11743942_at) / Fold change /veh CCDC152 (11743942_at) / RFU ECM1 (11717891_a_at) / Fold change /veh ECM1 (11717891_a_at) / RFU IL23R (11748794_a_at) / Fold change /veh IL23R (11748794_a_at) / RFU TNFAIP8L3 (11732012_x_at) / Fold change /veh TNFAIP8L3 (11732012_x_at) / RFU MBOAT4 (11741988_at) / Fold change /veh MBOAT4 (11741988_at) / RFU 11764193_at / Fold change /veh 11764193_at / RFU TMEM53 (11763286_at) / Fold change /veh TMEM53 (11763286_at) / RFU MAGEB2 (11727129_at) / Fold change /veh MAGEB2 (11727129_at) / RFU TMEM200A (11744735_a_at) / Fold change /veh TMEM200A (11744735_a_at) / RFU CCDC152 (11751479_a_at) / Fold change /veh CCDC152 (11751479_a_at) / RFU FAM211A (11726209_a_at) / Fold change /veh FAM211A (11726209_a_at) / RFU RGS16 (11746705_a_at) / Fold change /veh RGS16 (11746705_a_at) / RFU VCAN (11755009_s_at) / Fold change /veh VCAN (11755009_s_at) / RFU RHOB (11743442_s_at) / Fold change /veh RHOB (11743442_s_at) / RFU RGS16 (11720943_a_at) / Fold change /veh RGS16 (11720943_a_at) / RFU RGS16 (11720944_at) / Fold change /veh RGS16 (11720944_at) / RFU, VPS4B / Fold change vs veh, VPS4B / RFU, CREB1 / Fold change vs veh, CREB1 / RFU, DNAJC13 / Fold change vs veh, DNAJC13 / RFU, GNAQ / Fold change vs veh, GNAQ / RFU, CDK5R1 / Fold change vs veh, CDK5R1 / RFU, ZRANB3 / Fold change vs veh, ZRANB3 / RFU, CUL4A / Fold change vs veh, CUL4A / RFU, CCNY / Fold change vs veh, CCNY / RFU, UFL1 / Fold change vs veh, UFL1 / RFU, COG3 / Fold change vs veh, COG3 / RFU, DIAPH2 / Fold change vs veh, DIAPH2 / RFU, SKA2 / Fold change vs veh, SKA2 / RFU, AFF3 / Fold change vs veh, AFF3 / RFU, LMF1 / Fold change vs veh, LMF1 / RFU, IPO11 / Fold change vs veh, IPO11 / RFU, DFFB / Fold change vs veh, DFFB / RFU, FOXP1 / Fold change vs veh, FOXP1 / RFU, CARD8 / Fold change vs veh, CARD8 / RFU, STRN3 / Fold change vs veh, STRN3 / RFU, ADK / Fold change vs veh, ADK / RFU, RASSF2 / Fold change vs veh, RASSF2 / RFU, WIPF1 / Fold change vs veh, WIPF1 / RFU, LARP1B / Fold change vs veh, LARP1B / RFU, RASA1 / Fold change vs veh, RASA1 / RFU, RB1 / Fold change vs veh, RB1 / RFU, PPFIA1 / Fold change vs veh, PPFIA1 / RFU, MAT2A / Fold change vs veh, MAT2A / RFU, CCT5 / Fold change vs veh, CCT5 / RFU, WDR92 / Fold change vs veh, WDR92 / RFU, CUX1 / Fold change vs veh, CUX1 / RFU, TTC7A / Fold change vs veh, TTC7A / RFU, TMEM135 / Fold change vs veh, TMEM135 / RFU, DEPTOR / Fold change vs veh, DEPTOR / RFU, CPM / Fold change vs veh, CPM / RFU, DNAJB6 / Fold change vs veh, DNAJB6 / RFU, CACNA2D3 / Fold change vs veh, CACNA2D3 / RFU, DTX4 / Fold change vs veh, DTX4 / RFU, TFCP2 / Fold change vs veh, TFCP2 / RFU, GMCL1 /// GMCL1P1 / Fold change vs veh, GMCL1 /// GMCL1P1 / RFU, AEBP2 / Fold change vs veh, AEBP2 / RFU, SNHG1 /// SNORD22 /// SNORD25 /// SNORD26 /// SNORD27 /// SNORD28 /// SNORD29 /// SNORD31 / Fold change vs veh, SNHG1 /// SNORD22 /// SNORD25 /// SNORD26 /// SNORD27 /// SNORD28 /// SNORD29 /// SNORD31 / Fold change (Aza/veh), C12orf56 (ProbeSet 11735607_a_at) / Fold change (ACY-1035/veh), C12orf56 (ProbeSet 11735607_a_at) / Fold change (Aza/veh), FGFR1OP (ProbeSet 11751329_s_at) / Fold change (ACY-1035/veh), FGFR1OP (ProbeSet 11751329_s_at) / Fold change (Aza/veh), VPS36 (ProbeSet 11739960_a_at) / Fold change (ACY-1035/veh), VPS36 (ProbeSet 11739960_a_at) / RFU SYPL1 (11715823_x_at) / Fold change /veh SYPL1 (11715823_x_at) / RFU IGFBP7 (11715501_s_at) / Fold change /veh IGFBP7 (11715501_s_at) / RFU REEP3 (11722064_at) / Fold change /veh REEP3 (11722064_at) / RFU IGLL1 (11728026_x_at) / Fold change /veh IGLL1 (11728026_x_at): dose or concentration left out as unconfirmed
Details: ProbeSet 11760938_a_at; LIST D

## Nc1ncn([C@@H]2O[C@H](CO)[C@@H](O)[C@H]2O)c(=O)n1 [azacitidine]
  Fold change vs veh, MAT2A: 0.66
